Patent US20250145596A1, “HETEROCYCLIC GLP-1 AGONISTS” (Gasherbrum Bio, Inc., priority 2022, published 2025)

Target: T1, GLP-1 Receptor (Homo sapiens, UniProt P43220)
T1 construct: host or cells: HEK293/CRE-Luc
Assay: GLP-1R agonist cAMP stimulation assay
Type: cell-based
Details: HEK293/CRE-Luc cell line stably expressing the GLP-1 Receptor; 30 min at 37° C.; cAMP dynamic 2 Kit
Protocol: Activation of GLP-1 receptor is known to stimulate cyclic AMP (cAMP) production in cells which indicates primary coupling to the Gas subunit of the G protein heterotrimeric complex.
To optimize functional activity directed toward Gas coupling, a HEK293/CRE-Luc cell line developed by HDB stably expressing the GLP-1 Receptor was used. 200× concentration of compound working solutions were prepared (Agilent Technologies Bravo) with ½ log serial dilution in 384-well Echo LDV plate (Labcyte, Cat #LP-0200). 50 nL/well 200× concentration of compound working solutions were moved to 384-well white low volume plate (Greiner, Cat #784075) using Labcyte ECHO550. 1×10^5 cells/mL HEK293/GLPlR/CRE-LUC (HD Biosciences) cell suspensions prepared with assay buffer [DPBS containing 0.5 mM IBMX (Sigma, Cat #15879) and 0.1% BSA (GENVIEW, Cat #FA016-100g)], 10 μL cell suspensions were added to each well of previous generated assay plate which already contains 50 nL compound at 200× concentration using ThermoFisher Multidrop Combi (1000 cells/well). Seal the plate and incubate at 37° C. with 5% CO2 for 30 min.
After incubation the cAMP assay signal was generated using cAMP dynamic 2 Kit (Cisbio). 5 μL cAMP-d2 working solution was added to each well, followed with 5 μL Anti-cAMP antibody-cryptate working solution added to each well using ThermoFisher Multidrop Combi. Incubate at room temperature for 1 hour protected from light. Read the fluorescence at 665 and 615 nm with Reader PerkinElmer EnVision.
% Activity=100%×(mean RLU of test sample mean RLU of vehicle control)/(mean RLU of MAX control−mean RLU of vehicle control))

T1 sequence (P43220 24-463): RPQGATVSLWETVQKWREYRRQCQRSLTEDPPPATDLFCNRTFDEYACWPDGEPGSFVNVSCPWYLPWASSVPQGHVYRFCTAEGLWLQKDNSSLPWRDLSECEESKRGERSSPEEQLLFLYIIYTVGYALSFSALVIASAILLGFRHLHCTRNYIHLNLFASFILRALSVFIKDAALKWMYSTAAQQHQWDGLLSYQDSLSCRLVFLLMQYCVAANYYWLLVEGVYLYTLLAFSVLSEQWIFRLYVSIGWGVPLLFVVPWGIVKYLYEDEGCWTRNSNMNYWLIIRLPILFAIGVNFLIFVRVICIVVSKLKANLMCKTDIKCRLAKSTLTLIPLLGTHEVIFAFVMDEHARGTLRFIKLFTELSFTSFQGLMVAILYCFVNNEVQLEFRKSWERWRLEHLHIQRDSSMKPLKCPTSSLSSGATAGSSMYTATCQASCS

| Structure (SMILES) | EC50 |
| --- | --- |
| CCS(=O)(=O)Cc1cc(-c2nnc(C(F)(F)F)[nH]2)cnc1CN1CCC(c2cccc3c2O[C@@](C)(c2ccc(Cl)cc2F)O3)CC1 [Example 59, 2-({4-[(2S)-2-(4-chloro-2-fluorophenyl)-2-methyl-2H-1,3-benzodioxol-4-yl]piperidin-1-yl}methyl)-3-[(ethanesulfonyl)methyl]-5-[5-(trifluoromethyl)-4H-1,2,4-triazol-3-yl]pyridine] | < 1 nM |
| CS(=O)(=O)Cc1cc(-c2nnc(C(F)(F)F)[nH]2)cnc1CN1CCC(c2ccc(F)c(OCc3ccc(Cl)cc3F)n2)CC1 [Example 61, 2-[(4-{6-[(4-chloro-2-fluorophenyl)methoxy]-5-fluoropyridin-2-yl}piperidin-1-yl)methyl]-3-(methanesulfonylmethyl)-5-[5-(trifluoromethyl)-4H-1,2,4-triazol-3-yl]pyridine] | < 1 nM |
| C[C@]1(c2ccc(Cl)cc2F)Oc2cccc(C3CCN(Cc4ncc(-c5nnc(C(F)(F)F)[nH]5)cc4CC4(C#N)CC4)CC3F)c2O1 (single isomer, unassigned) [Example 28] | < 1 nM |
| C[C@]1(c2ccc(Cl)cc2F)Oc2c(F)ccc(C3CCN(Cc4ncc(-c5nnc(C(F)(F)F)[nH]5)cc4CC4(C#N)CC4)CC3F)c2O1 (single isomer, unassigned) [Example 30] | < 1 nM |
| CS(=O)(=O)Cc1cc(-c2nnc(C(F)(F)F)[nH]2)cnc1CN1CCC(Oc2cccc(Cc3ccc(Cl)cc3F)n2)CC1 [Example 87] | 1 to 100 nM |
| N#CC1(Cc2cc(-c3nnc(C(F)(F)F)[nH]3)cnc2CN2CCC(c3cccc4c3OC(c3ccc(Cl)cc3F)CO4)CC2)CC1 (centres unmarked) [Example 38, 1-{[2-({4-[3-(4-chloro-2-fluorophenyl)-2,3-dihydro-1,4-benzodioxin-5-yl]piperidin-1-yl}methyl)-5-[5-(trifluoromethyl)-4H-1,2,4-triazol-3-yl]pyridin-3-yl]methyl}cyclopropane-1-carbonitrile] | < 1 nM |
| C[C@H]1CN(c2ccnc(OCc3ccc(Cl)cc3F)n2)CCN1Cc1ncc(-c2nnc(C(F)(F)F)[nH]2)cc1CC1(C#N)CC1 [Example 91] | 1 to 100 nM |
| Cc1cc(-c2noc(=O)[nH]2)nnc1CN1CCC(c2cccc3c2O[C@@](C)(c2ccc(Cl)cc2F)O3)CC1 [Example 51, (S)-3-(6-((4-(2-(4-chloro-2-fluorophenyl)-2-methylbenzo[d][1,3]dioxol-4-yl)piperidin-1-yl)methyl)-5-methylpyridazin-3-yl)-1,2,4-oxadiazol-5(4H)-one] | 1 to 100 nM |
| Cc1cc(-c2nnc(C(F)(F)F)[nH]2)cnc1CN1CCC(c2cccc(OCc3ccc(Cl)cc3F)n2)CC1 [Example 90] | 1 to 100 nM |
| N#CC1(Cc2cc(-c3nnc(C(F)(F)F)[nH]3)cnc2CN2CCC(Oc3ccnc(Cc4ccc(Cl)cc4F)n3)CC2)CC1 [Example 86] | 1 to 100 nM |
| Cc1nc(-c2cnc(CN3CCC(c4cccc5c4OC(C)(c4ccc(Cl)cc4F)O5)CC3)c(C)c2)no1 (centres unmarked) [Example 97] | > 100 nM |
| CC1(c2ccc(Cl)cc2F)Oc2cccc(C3CCN(Cc4ncc(-c5nnn[nH]5)cc4C(F)(F)F)CC3)c2O1 (centres unmarked) [Example 98] | > 100 nM |
| Cc1cc(-c2nnn[nH]2)nnc1CN1CCC(c2cccc3c2O[C@@](C)(c2ccc(Cl)cc2F)O3)CC1 [Example 50, 3-({4-[(2S)-2-(4-chloro-2-fluorophenyl)-2-methyl-1,3-benzodioxol-4-yl]piperidin-1-yl}methyl)-4-methyl-6-(1H-1,2,3,4-tetrazol-5-yl)pyridazine] | 1 to 100 nM |
| CC1(c2ccccc2F)Oc2ccc(F)c(C3CCN(Cc4ncc(-c5nnc(C(F)(F)F)[nH]5)cc4CC4(C#N)CC4)CC3)c2O1 (centres unmarked) [Example 80] | 1 to 100 nM |
| CC1(c2ccc(Cl)cc2F)Oc2cccc(C3=CCN(Cc4ncc(-c5nnc(C(F)(F)F)[nH]5)cc4CC4(C#N)CC4)CC3)c2O1 (centres unmarked) [Example 66, 1-((2-((4-(2-(4-chloro-2-fluorophenyl)-2-methylbenzo[d][1,3]dioxol-4-yl)-3,6-dihydropyridin-1(2H)-yl)methyl)-5-(5-(trifluoromethyl)-4H-1,2,4-triazol-3-yl)pyridin-3-yl)methyl)cyclopropane-1-carbonitrile] | < 1 nM |
| CN1CCC(Cc2cc(-c3nnc(C(F)(F)F)[nH]3)cnc2CN2CCC(c3cccc4c3O[C@@](C)(c3ccc(Cl)cc3F)O4)CC2)C1=O (some centres unmarked) [Example 92] | 1 to 100 nM |
| N#CC1(Cc2cc(-c3nnc(C(F)(F)F)[nH]3)cnc2CN2CCC(c3cccc(OCc4ccc(Cl)cc4F)n3)CC2)CC1 [Example 32, 1-({2-[(4-{6-[(4-chloro-2-fluorophenyl)methoxy]pyridin-2-yl}piperidin-1-yl)methyl]-5-[5-(trifluoromethyl)-4H-1,2,4-triazol-3-yl]pyridin-3-yl}methyl)cyclopropane-1-carbonitrile] | < 1 nM |
| CS(=O)(=O)Cc1cc(-c2nnc(C(F)(F)F)[nH]2)cnc1CN1CCC(c2cccc(OCc3ccc(Cl)cc3F)n2)CC1 [Example 57, 2-[(4-{6-[(4-chloro-2-fluorophenyl)methoxy]pyridin-2-yl}piperidin-1-yl)methyl]-3-(methanesulfonylmethyl)-5-[5-(trifluoromethyl)-4H-1,2,4-triazol-3-yl]pyridine] | 1 to 100 nM |
| C[C@]1(c2ccc(Cl)cc2F)Oc2cccc(C3CCN(Cc4ncc(-c5nnc(C(F)(F)F)[nH]5)cc4C#N)CC3)c2O1 [Example 93] | 1 to 100 nM |

Next, values leading:

| EC50 | Structure (SMILES) |
| --- | --- |
| < 1 nM | C[C@]1(c2ccc(Cl)cc2F)Oc2cccc(C3CCN(Cc4ncc(-c5nnc(C#N)[nH]5)cc4CC4(C#N)CC4)CC3)c2O1 [Example 18, (S)-5-(6-((4-(2-(4-chloro-2-fluorophenyl)-2-methylbenzo[d][1,3]dioxol-4-yl)piperidin-1-yl)methyl)-5-((1-cyanocyclopropyl)methyl)pyridin-3-yl)-4H-1,2,4-triazole-3-carbonitrile] |
| < 1 nM | Cc1cc(Cl)ccc1C1(C)Oc2cccc(C3CCN(Cc4ncc(-c5nnc(C(F)(F)F)[nH]5)cc4CC4(C#N)CC4)CC3)c2O1 (centres unmarked) [Example 7, 1-((2-((4-(2-(4-chloro-2-methylphenyl)-2-methylbenzo[d][1,3]dioxol-4-yl)piperidin-1-yl)methyl)-5-(5-(trifluoromethyl)-4H-1,2,4-triazol-3-yl)pyridin-3-yl)methyl)cyclopropane-1-carbonitrile] |
| < 1 nM | C[C@]1(c2ccc(Cl)cc2F)Oc2cccc(C3CCN(Cc4ncc(-c5nnc(C(F)F)[nH]5)cc4CC4(C#N)CC4)CC3)c2O1 [Example 17, 1-{[2-({4-[(2S)-2-(4-chloro-2-fluorophenyl)-2-methyl-2H-1,3-benzodioxol-4-yl]piperidin-1-yl}methyl)-5-[5-(difluoromethyl)-4H-1,2,4-triazol-3-yl]pyridin-3-yl]methyl}cyclopropane-1-carbonitrile] |
| < 1 nM | CC1(c2ccc(Cl)cc2Cl)Oc2cccc(C3CCN(Cc4ncc(-c5nnc(C(F)(F)F)[nH]5)cc4CC4(C#N)CC4)CC3)c2O1 (centres unmarked) [Example 1, 1-{[2-({4-[2-(2,4-dichlorophenyl)-2-methyl-2H-1,3-benzodioxol-4-yl]piperidin-1-yl}methyl)-5-[5-(trifluoromethyl)-4H-1,2,4-triazol-3-yl]pyridin-3-yl]methyl}cyclopropane-1-carbonitrile] |
| < 1 nM | CC1(c2ccc(Cl)cc2Cl)Oc2cccc(C3CCN(Cc4ncc(-c5nnc(C(F)(F)F)[nH]5)cc4CC4(C#N)CC4)CC3)c2O1 (single isomer, unassigned) [Example 2, 1-{[2-({4-[2-(2,4-dichlorophenyl)-2-methyl-2H-1,3-benzodioxol-4-yl]piperidin-1-yl}methyl)-5-[5-(trifluoromethyl)-4H-1,2,4-triazol-3-yl]pyridin-3-yl]methyl}cyclopropane-1-carbonitrile] |
| 1 to 100 nM | C[C@]1(c2ccc(Cl)cc2F)Oc2cccc(C3CCN(Cc4ncc(CCC(=O)O)cc4CC4(C#N)CC4)CC3)c2O1 [Example 21, (S)-3-(6-((4-(2-(4-chloro-2-fluorophenyl)-2-methylbenzo[d][1,3]dioxol-4-yl)piperidin-1-yl)methyl)-5-((1-cyanocyclopropyl)methyl)pyridin-3-yl)propanoic acid] |
| < 1 nM | CC1(c2ccc(Cl)c(F)c2)Oc2cccc(C3CCN(Cc4ncc(-c5nnc(C(F)(F)F)[nH]5)cc4CC4(C#N)CC4)CC3)c2O1 (centres unmarked) [Example 10, 1-{[2-({4-[2-(4-Chloro-3-fluorophenyl)-2-methyl-2H-1,3-benzodioxol-4-yl]piperidin-1-yl}methyl)-5-[5-(trifluoromethyl)-4H-1,2,4-triazol-3-yl]pyridin-3-yl]methyl}cyclopropane-1-carbonitrile] |
| < 1 nM | C[C@]1(c2ccc(Cl)cc2F)Oc2cccc(C3CCN(Cc4ncc(-c5nnc(C(F)(F)F)[nH]5)cc4CC4(C#N)CC4)CC3F)c2O1 (single isomer, unassigned) [Example 27] |
| < 1 nM | C[C@]1(c2ccc(Cl)cc2F)Oc2cccc(C3CCN(Cc4ncc(-c5noc(=O)[nH]5)cc4CC4(C#N)CC4)CC3)c2O1 [Example 73] |
| < 1 nM | C[C@]1(c2ccc(Cl)cc2F)Oc2cccc(C3CCN(Cc4ncc(-c5nnn[nH]5)cc4CC4(C#N)CC4)CC3)c2O1 [Example 71] |
